The target of assay [1] is ERK2 (Homo sapiens, UniProt P28482). The experiment in a line: SignalChem radioisotope protein kinase assay. The settings on record: 5 μl of 100 μM stock solution in 25 μl. The assay is classed as biochemical. From the text:
(§1) The various protein kinase targets to be employed in the kinase profiling assay were cloned, expressed and purified in-house at SignalChem (Richmond, BC, Canada) using proprietary methods. Quality control testing is routinely performed on each of the SignalChem targets to ensure compliance to acceptable standards. Protein substrates employed in the target profiling process were synthesized internally. ^33P-ATP was purchased from PerkinElmer. All other materials were of standard grade. Compound 10 (FIG. 4) was supplied to SignalChem in a powder form. It was reconstituted in DMSO to form a stock solution which was then diluted with 10% DMSO to form a working stock solution (100 μM) that was then profiled against the various protein kinase targets. The assay conditions for the various protein kinase targets were optimized to yield acceptable enzymatic activity. In addition, the assays were optimized to give high signal-to-noise ratio.
(§2) SignalChem uses a radioisotope assay format for profiling evaluation of protein kinase targets. Protein kinase assays were performed in triplicate at ambient temperature for 20-40 min (depending on the target) in a final volume of 25 μl according to the following assay reaction recipe: • Component 1: 5 μl of diluted active protein kinase target (˜10-40 nM final protein concentration in the assay) • Component 2: 5 μl of stock solution of substrate (1-5 μg of peptide or protein substrate) • Component 3: 5 μl of kinase assay buffer or protein kinase activator in kinase assay buffer • Component 4: 5 μl of Compound 10 (100 μM stock solution) or 10% DMSO • Component 5: 5 μl of 33P-ATP (25 μM stock solution, 0.8 μCi)
(§3) The assay was initiated by the addition of ^33P-ATP and the reaction mixture incubated at ambient temperature for 20-40 minutes, depending on the protein kinase target. After the incubation period, the assay was terminated by spotting 10 μl of the reaction mixture onto a Millipore Multiscreen plate. The Millipore Multiscreen plate was washed 3 times for approximately 15 minutes each in a 1% phosphoric acid solution. The radioactivity on the P81 plate was counted in the presence of scintillation fluid in a Trilux scintillation counter. Blank control, which included all the assay components except the addition of the appropriate substrate (replaced with equal volume of assay dilution buffer), was set up for each protein kinase target. The corrected activity for each protein kinase target was determined by removing the blank control value.

For assay [2], the target named is NEK6 (Homo sapiens, UniProt Q9HC98). Put plainly: SignalChem radioisotope protein kinase assay. The class given is biochemical. As to conditions: 5 μl of 100 μM stock solution in 25 μl.
Sequence of NEK6 (Q9HC98 whole entry, species assumed): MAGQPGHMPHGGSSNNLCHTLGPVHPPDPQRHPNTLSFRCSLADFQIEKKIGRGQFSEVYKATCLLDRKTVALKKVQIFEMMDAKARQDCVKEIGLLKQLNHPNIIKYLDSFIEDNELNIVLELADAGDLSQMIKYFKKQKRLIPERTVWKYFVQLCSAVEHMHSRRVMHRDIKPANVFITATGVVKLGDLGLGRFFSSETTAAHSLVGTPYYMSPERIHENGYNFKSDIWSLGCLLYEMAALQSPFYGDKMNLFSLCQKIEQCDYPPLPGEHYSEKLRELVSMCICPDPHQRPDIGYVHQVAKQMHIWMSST
Text: as §1, §2, §3

The target in assay [3] is T1, RAF1(EE) (Homo sapiens, UniProt P04049, Y340E/Y341E).
T1 construct: purchased SignalChem
The experiment in a line: SignalChem radioisotope protein kinase assay. The assay is classed as biochemical. The settings on record: 5 μl of 100 μM stock solution in 25 μl.
Text: as §1, §2, §3

Assay [4] concerns the target T2, RSK1 (Homo sapiens, UniProt Q15418).
T2 construct: purchased SignalChem
Put plainly: SignalChem radioisotope protein kinase assay. As to conditions: 5 μl of 100 μM stock solution in 25 μl. The assay is classed as biochemical.
Text: as §1, §2, §3

Assay [5] has as its target FMS (Homo sapiens, UniProt P07333). Put plainly: SignalChem radioisotope protein kinase assay. The settings on record: 5 μl of 100 μM stock solution in 25 μl. The assay is classed as biochemical.
Text: as §1, §2, §3

Assay [6] concerns the target PIM1 (Homo sapiens, UniProt P11309). Put plainly: SignalChem radioisotope protein kinase assay. The class given is biochemical. The settings on record: 5 μl of 100 μM stock solution in 25 μl.
Text: as §1, §2, §3

Assay [7] concerns the target FLT3 (Homo sapiens, UniProt P36888). Put plainly: SignalChem radioisotope protein kinase assay. The assay is classed as biochemical. The settings on record: 5 μl of 100 μM stock solution in 25 μl.
Text: as §1, §2, §3

For assay [8], the target named is p38δ (Homo sapiens, UniProt O15264). The experiment in a line: SignalChem radioisotope protein kinase assay. The assay is classed as biochemical. The settings on record: 5 μl of 100 μM stock solution in 25 μl.
Text: as §1, §2, §3

Assay [9] concerns the target p38β (Homo sapiens, UniProt Q15759). The experiment in a line: SignalChem radioisotope protein kinase assay. As to conditions: 5 μl of 100 μM stock solution in 25 μl. The assay is classed as biochemical.
Text: as §1, §2, §3

Assay [10] has as its target T3, PAK3 (Homo sapiens, UniProt O75914). Put plainly: SignalChem radioisotope protein kinase assay. As to conditions: 5 μl of 100 μM stock solution in 25 μl. The assay is classed as biochemical.
Text: as §1, §2, §3

Assay [11] has as its target LCK (Homo sapiens, UniProt P06239). The experiment in a line: SignalChem radioisotope protein kinase assay. The settings on record: 5 μl of 100 μM stock solution in 25 μl. The class given is biochemical.
Text: as §1, §2, §3

The target in assay [12] is AKT3 (Homo sapiens, UniProt Q9Y243). The experiment in a line: SignalChem radioisotope protein kinase assay. The class given is biochemical. As to conditions: 5 μl of 100 μM stock solution in 25 μl.
Text: as §1, §2, §3

In assay [13] the target is AURORA A (Homo sapiens, UniProt O14965). Put plainly: SignalChem radioisotope protein kinase assay. The assay is classed as biochemical. As to conditions: 5 μl of 100 μM stock solution in 25 μl.
Text: as §1, §2, §3

In assay [14] the target is LYN B (Homo sapiens, UniProt P07948). The experiment in a line: SignalChem radioisotope protein kinase assay. The assay is classed as biochemical. The settings on record: 5 μl of 100 μM stock solution in 25 μl.
Text: as §1, §2, §3

Assay [15] has as its target c-KIT (Homo sapiens, UniProt P10721). The experiment in a line: SignalChem radioisotope protein kinase assay. The class given is biochemical. The settings on record: 5 μl of 100 μM stock solution in 25 μl.
Text: as §1, §2, §3

Assay [16] addresses FER (Homo sapiens, UniProt P16591). The experiment in a line: SignalChem radioisotope protein kinase assay. As to conditions: 5 μl of 100 μM stock solution in 25 μl. The class given is biochemical.
Text: as §1, §2, §3

Assay [17] has as its target EGFR (Homo sapiens, UniProt P00533). Put plainly: Ambit kinase phage display ATP-binding-site ligand binding assay. The settings on record: read-out: % Inhibition of binding to ATP-binding-site ligand.
Text: (§4) This assay is based on ligand-affinity/protein kinase phage display and was employed essentially as described by Fabian et. al [Nature Biotech. […] In this assay, protein kinases are cloned into T7 bacteriophage which express the kinase fusion proteins on the phage capsid. T7 kinase-tagged phage are then screened for binding to ATP-binding-site ligands that have been immobilized on a solid support. Phage are screened for binding to the anchored ligands both in the presence of test compound and in its absence (control). Elution of the bound phage by free ligand (ATP-binding site ligand that is not immobilized on a solid support) followed by determination of the phage titre provides a reliable measure of the ability of test compounds to block binding of target kinases to resin-bound ATP-binding-site ligands.
(§5) T7 kinase-tagged phage strains were grown in parallel in microtiter plates in a proprietary bacterial host derived from E. Coli strain BL21. E. Coli were grown to a log phase, infected with T7 kinase-tagged phage, and incubated while shaking at 32° C. until bacterial lysis (approx. 90 min). Lysates were centrifuged (6,000 g) and filtered (0.2 μm). […] The phage titre of the eluates was measured by quantitative PCR or by plaque assays. […]
Assay [18] has as its target MINK (Homo sapiens, UniProt Q8N4C8). The assay is described as above. The settings on record: read-out: percent inhibition of binding.
Text: as §4, §5
Assay [19] addresses BMPR2 (Homo sapiens, UniProt Q13873). Described as above. As to conditions: read-out: percent inhibition of binding.
Text: as §4, §5
For assay [20], the target named is MLK1 (Homo sapiens, UniProt P80192). The description is as above. As to conditions: read-out: percent inhibition of binding.
Text: (§6) In this assay, protein kinases are cloned into T7 bacteriophage which express the kinase fusion proteins on the phage capsid. T7 kinase-tagged phage are then screened for binding to ATP-binding-site ligands that have been immobilized on a solid support. Phage are screened for binding to the anchored ligands both in the presence of test compound and in its absence (control). Elution of the bound phage by free ligand (ATP-binding site ligand that is not immobilized on a solid support) followed by determination of the phage titre provides a reliable measure of the ability of test compounds to block binding of target kinases to resin-bound ATP-binding-site ligands.
(§7) T7 kinase-tagged phage strains were grown in parallel in microtiter plates in a proprietary bacterial host derived from E. Coli strain BL21. E. Coli were grown to a log phase, infected with T7 kinase-tagged phage, and incubated while shaking at 32° C. until bacterial lysis (approx. 90 min). Lysates were centrifuged (6,000 g) and filtered (0.2 μm). Small molecule ATP-binding-site-specific ligands were anchored to solid supports via a two step process beginning with biotin conjugation followed by treatment of the biotin/small molecule conjugate with streptavidin-coated magnetic beads. […] The phage titre of the eluates was measured by quantitative PCR or by plaque assays. […]
For assay [21], the target named is BTK (Homo sapiens, UniProt Q06187). Described as above. As to conditions: read-out: % Inhibition of binding to ATP-binding-site ligand.
Text: as §6, §7
Assay [22] concerns the target CDK3 (Homo sapiens, UniProt Q00526). The assay is described as above. The settings on record: read-out: percent inhibition of binding.
Text: as §4, §5
Assay [23] concerns the target T3, PAK3. The assay is described as above. As to conditions: read-out: % Inhibition of binding to ATP-binding-site ligand.
Text: as §4, §5
Assay [24] relates to MDA-MB-468. The experiment in a line: NCI 60 in vitro screen (SRB), Breast Cancer. The assay is classed as cell-based, human. As for the experimental part:
Mean ODtzero=The average of optical density measurements SRB-derived color just before exposure of cells to the test compound. Mean ODtest=The average of optical density measurement of SRB-derived color after 48 hours exposure of cells to the test compound. Mean ODctrl=The average of optical density measurements of SRB-derived color after 48 hours with no exposure of cells to the test compound.

The structures appear in SMILES notation. Where only a bound is given, the exact number is not on record here.

The inhibition is the share of the control response that was lost under treatment. A word on the GI50: it is the concentration giving 50% growth inhibition. High values mean lower sensitivity of the cells, low ones greater sensitivity of the cells. The term IC50 denotes the point on the concentration scale where inhibition reaches its midpoint. The low end stands for greater potency, the high end for weaker potency.

T3 sequence (O75914 whole entry, species assumed): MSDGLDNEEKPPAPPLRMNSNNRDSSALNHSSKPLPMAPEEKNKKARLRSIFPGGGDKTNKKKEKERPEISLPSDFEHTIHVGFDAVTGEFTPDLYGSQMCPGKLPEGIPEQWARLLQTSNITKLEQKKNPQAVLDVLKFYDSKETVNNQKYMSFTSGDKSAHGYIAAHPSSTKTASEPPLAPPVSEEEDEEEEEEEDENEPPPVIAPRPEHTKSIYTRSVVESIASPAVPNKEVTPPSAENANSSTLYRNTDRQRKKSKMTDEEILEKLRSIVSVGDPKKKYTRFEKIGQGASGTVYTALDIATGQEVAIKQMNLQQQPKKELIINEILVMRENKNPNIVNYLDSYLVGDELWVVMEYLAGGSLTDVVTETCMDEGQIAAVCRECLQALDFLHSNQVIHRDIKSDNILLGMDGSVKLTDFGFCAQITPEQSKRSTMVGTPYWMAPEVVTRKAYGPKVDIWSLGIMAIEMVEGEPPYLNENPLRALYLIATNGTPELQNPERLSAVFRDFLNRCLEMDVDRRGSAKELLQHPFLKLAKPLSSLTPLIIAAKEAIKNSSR
Sequence of FMS (P07333 20-972, species assumed): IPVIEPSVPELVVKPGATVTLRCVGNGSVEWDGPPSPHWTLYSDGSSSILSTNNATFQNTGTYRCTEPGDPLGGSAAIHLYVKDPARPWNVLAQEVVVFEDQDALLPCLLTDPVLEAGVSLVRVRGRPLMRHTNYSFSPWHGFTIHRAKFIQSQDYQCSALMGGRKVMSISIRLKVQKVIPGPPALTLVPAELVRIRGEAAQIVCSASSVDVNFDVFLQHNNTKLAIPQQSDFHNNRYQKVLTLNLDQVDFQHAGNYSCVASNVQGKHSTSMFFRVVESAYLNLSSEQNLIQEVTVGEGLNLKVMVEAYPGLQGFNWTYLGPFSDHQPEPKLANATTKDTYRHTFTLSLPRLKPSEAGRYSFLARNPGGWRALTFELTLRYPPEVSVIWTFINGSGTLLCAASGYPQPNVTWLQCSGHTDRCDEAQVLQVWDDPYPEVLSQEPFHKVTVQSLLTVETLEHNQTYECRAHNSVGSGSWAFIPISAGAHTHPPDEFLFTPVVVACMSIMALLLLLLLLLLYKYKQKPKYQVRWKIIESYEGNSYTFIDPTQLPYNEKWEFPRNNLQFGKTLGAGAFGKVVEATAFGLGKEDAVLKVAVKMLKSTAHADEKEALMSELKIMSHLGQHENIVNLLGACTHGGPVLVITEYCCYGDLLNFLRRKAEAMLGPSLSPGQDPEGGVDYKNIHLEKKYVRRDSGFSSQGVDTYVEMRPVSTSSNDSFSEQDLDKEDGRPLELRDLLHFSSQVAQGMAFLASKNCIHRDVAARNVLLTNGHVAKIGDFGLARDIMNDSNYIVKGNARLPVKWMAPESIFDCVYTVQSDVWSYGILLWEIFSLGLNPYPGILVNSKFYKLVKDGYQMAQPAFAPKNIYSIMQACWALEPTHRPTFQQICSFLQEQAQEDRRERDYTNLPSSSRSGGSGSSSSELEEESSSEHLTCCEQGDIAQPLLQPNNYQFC
Sequence of BMPR2 (Q13873 27-1038): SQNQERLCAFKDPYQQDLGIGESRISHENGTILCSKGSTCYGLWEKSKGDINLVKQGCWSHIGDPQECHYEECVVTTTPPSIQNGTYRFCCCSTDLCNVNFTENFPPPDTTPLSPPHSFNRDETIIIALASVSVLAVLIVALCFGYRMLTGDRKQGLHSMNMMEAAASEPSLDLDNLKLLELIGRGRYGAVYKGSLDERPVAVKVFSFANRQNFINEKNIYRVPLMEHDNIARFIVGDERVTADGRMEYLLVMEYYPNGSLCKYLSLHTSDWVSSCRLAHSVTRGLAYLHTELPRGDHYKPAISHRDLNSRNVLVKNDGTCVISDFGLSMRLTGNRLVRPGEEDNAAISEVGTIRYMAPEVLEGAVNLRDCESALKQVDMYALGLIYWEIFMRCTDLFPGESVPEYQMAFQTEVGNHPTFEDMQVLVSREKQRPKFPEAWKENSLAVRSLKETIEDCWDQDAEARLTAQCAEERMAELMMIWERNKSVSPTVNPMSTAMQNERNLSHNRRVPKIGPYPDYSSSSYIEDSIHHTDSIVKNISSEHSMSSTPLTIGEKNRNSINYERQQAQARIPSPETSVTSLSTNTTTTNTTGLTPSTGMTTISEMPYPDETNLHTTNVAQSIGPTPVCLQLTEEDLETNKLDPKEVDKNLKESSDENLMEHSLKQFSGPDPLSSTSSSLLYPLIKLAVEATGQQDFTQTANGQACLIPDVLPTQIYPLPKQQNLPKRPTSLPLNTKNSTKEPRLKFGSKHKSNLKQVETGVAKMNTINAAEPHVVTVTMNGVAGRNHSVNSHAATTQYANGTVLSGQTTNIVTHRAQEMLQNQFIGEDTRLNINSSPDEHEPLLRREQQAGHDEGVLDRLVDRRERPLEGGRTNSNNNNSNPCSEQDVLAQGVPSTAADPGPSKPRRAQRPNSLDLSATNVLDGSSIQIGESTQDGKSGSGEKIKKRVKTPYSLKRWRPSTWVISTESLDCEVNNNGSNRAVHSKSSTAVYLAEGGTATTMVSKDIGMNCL
T2 sequence (Q15418 whole entry, species assumed): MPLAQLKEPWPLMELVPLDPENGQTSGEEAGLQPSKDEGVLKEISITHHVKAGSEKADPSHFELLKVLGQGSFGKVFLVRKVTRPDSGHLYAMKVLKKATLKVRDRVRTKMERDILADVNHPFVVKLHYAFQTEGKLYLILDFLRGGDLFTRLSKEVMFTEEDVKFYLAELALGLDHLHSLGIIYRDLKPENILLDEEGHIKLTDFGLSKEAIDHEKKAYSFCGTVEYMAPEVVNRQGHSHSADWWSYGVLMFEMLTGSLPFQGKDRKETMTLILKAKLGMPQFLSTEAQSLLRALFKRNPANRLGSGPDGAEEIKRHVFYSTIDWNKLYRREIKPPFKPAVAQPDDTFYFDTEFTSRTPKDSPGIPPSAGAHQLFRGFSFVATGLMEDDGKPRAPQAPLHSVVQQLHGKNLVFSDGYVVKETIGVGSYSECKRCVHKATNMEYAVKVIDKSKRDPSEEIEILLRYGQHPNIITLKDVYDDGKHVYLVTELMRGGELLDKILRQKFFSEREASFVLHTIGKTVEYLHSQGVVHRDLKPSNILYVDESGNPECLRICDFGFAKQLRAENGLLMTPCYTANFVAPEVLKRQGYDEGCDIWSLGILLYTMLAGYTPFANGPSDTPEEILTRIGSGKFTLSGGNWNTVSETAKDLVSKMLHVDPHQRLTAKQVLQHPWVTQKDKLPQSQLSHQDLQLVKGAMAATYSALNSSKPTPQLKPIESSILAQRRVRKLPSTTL
Sequence of FER (P16591 whole entry, species assumed): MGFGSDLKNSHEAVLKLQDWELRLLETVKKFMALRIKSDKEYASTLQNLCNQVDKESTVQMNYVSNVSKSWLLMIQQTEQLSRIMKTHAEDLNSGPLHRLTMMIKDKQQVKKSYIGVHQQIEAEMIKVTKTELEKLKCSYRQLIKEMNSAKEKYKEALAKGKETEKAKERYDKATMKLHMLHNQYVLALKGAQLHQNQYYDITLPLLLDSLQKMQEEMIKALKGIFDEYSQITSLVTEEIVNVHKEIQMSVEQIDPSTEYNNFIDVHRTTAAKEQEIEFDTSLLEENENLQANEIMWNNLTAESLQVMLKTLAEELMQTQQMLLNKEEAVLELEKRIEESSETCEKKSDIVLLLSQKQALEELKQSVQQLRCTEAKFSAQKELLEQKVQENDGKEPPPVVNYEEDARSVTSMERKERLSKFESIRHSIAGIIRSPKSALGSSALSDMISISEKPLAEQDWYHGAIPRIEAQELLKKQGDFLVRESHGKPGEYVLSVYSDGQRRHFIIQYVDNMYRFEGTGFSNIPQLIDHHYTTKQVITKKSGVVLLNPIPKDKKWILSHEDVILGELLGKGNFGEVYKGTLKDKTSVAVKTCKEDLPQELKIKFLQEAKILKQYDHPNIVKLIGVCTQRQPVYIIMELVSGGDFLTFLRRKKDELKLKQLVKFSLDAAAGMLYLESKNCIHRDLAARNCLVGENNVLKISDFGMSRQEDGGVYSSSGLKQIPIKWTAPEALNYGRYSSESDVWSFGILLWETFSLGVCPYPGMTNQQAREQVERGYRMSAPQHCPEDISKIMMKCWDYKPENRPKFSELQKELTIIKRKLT
Sequence of CDK3 (Q00526 whole entry): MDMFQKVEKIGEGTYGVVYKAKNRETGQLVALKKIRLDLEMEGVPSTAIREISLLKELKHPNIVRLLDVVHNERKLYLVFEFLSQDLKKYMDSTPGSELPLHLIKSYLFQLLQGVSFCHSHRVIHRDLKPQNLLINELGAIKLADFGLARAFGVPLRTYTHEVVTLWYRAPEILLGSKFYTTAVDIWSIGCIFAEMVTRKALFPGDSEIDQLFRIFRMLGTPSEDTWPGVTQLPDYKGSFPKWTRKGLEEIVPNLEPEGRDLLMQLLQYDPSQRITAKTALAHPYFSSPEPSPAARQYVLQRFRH
Sequence of PIM1 (P11309 whole entry, species assumed): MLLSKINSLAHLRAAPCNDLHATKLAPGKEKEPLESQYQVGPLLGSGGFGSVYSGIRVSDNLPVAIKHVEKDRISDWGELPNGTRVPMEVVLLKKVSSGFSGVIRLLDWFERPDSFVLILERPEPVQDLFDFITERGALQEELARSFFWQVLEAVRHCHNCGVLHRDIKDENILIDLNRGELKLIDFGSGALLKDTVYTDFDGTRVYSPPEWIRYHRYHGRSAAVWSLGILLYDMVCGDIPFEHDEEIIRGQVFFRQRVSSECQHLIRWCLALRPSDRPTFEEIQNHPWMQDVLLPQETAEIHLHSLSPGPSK

`CCOC(=O)C[C@@H]1C(O[Si](C)(C)C(C)(C)C)[C@H](n2cnc3c(NC(=O)Nc4ccccc4)ncnc32)O[C@@H]1CNC(=O)NC` (stereo partly shown) [Compound 10]: the “% Activity Change” value in [1] is reported as −4%; in [2], 28%; in assay [3], 0%; in assay [4] it was 4%; in [5] it was −17%; in [6] it was 51%. Besides, the “% Activity Change” value turned out to be 11% in [7]; 5% in assay [8]; 15% in assay [9]; 524% in assay [10]; 30% in assay [11]; 52% in assay [12]. For the same compound, the “% Activity Change” value is 1% in assay [13], 12% in assay [14], −6% in assay [15] and −3% in [16]. For the same compound, the inhibition at 10 µM in [17] is 30%; in assay [18] it was 20 to 29%; in assay [19], 20 to 29%; in [20], 20 to 29%; in assay [21], 35%; in [22], 20 to 29%. Further, the inhibition at 10 µM in [23] came out at 33%.
`CNC(=O)NC[C@H]1O[C@@H](n2cnc3c(NC(=O)Nc4ccccc4)ncnc32)C(O[Si](C)(C)C(C)(C)C)[C@H]1O[Si](C)(C)C(C)(C)C` (stereo partly shown) [Compound 25, 2′,3′-Bis-O-(tert-butyldimethylsilyl)-5-deoxy-5′-[(N-methylcarbamoyl)amino]-N^6-(N-phenylcarbamoyl)adenosine]: the TGI in assay [24] is listed as 1.39E−5 Molar. Besides, in assay [24] (Homo sapiens), it took 3.35 µM to inhibit growth by half (GI50). In addition, the IC50 in assay [24] (Homo sapiens) was over 100 µM. Moreover, the “Percent Growth” value in [24] (Log10 Concentration −4.0 Molar) is −35%; in [24] (Log10 Concentration −5.0 Molar), 5%; in [24] (Log10 Concentration −6.0 Molar), 99%; in assay [24] (Log10 Concentration −7.0 Molar) it was 104%; in [24] (Log10 Concentration −8.0 Molar), 101%.

Source of the values: patent US20100152434A1, “Protein Kinase-binding Nucleosides and Associated Methods” (priority 2007, published 2010).
